These results are taken from patent publication US20250145606A1 (Arcus Biosciences, Inc., priority 2023, published 2025).

In experiment [1] the target is c-Kit (Homo sapiens (Human), UniProt P10721). The experiment in a line: Inhibition of c-Kit kinase activity (HTRF KinEASE-TK). In kind it is biochemical. To be noted: biochemical, HTRF KinEASE-TK. The gist of the method:
(§1)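 Recombinant kinases (2 nM CSF1R and c-Kit, 10 nM PDGFRα/β, 2× working) preincubated 1 h with compound in 50 mM HEPES pH 7.4, 5 mM MgCl2 (c-Kit) or 10 mM (others), 2 mM MnCl2; 2× ATP: c-Kit 16 μM, PDGFRα 1 μM, PDGFRβ 40 μM, CSF1R 20 μM. 120 min reaction at rt; TR-FRET 665/620 nm; IC50 by 4-parameter fit.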
Background: TR-FRET usually uses a lanthanide donor and a delayed reading to cut background.

Experiment [2] has as its target PDGFRα (Homo sapiens (Human), UniProt P16234). Kind of experiment: Inhibition of PDGFRα kinase activity (HTRF KinEASE-TK). To be noted: biochemical, HTRF KinEASE-TK. In a few lines:
as §1

Experiment [3] addresses PDGFRβ (Homo sapiens (Human), UniProt P09619). Kind of experiment: Inhibition of PDGFRβ kinase activity (HTRF KinEASE-TK). To be noted: biochemical, HTRF KinEASE-TK. In a few lines:
as §1

In experiment [4] the target is CSF1R (Homo sapiens (Human), UniProt P07333). Kind of experiment: Inhibition of CSF1R kinase activity (HTRF KinEASE-TK). To be noted: biochemical, HTRF KinEASE-TK. The gist of the method:
as §1

In experiment [5] the target is FLT3 (Homo sapiens (Human), UniProt P36888). The experiment in a line: Inhibition of FLT3 kinase activity (HTRF KinEASE-TK). In kind it is biochemical. To be noted: biochemical, HTRF KinEASE-TK. The gist of the method:
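FLT3 tyrosine kinase activity was measured with the HTRF KinEASE-TK kit by following phosphorylation of a biotinylated TK peptide. After the 45 min reaction, 10 μL of detection mix was added: 0.2 μM (2×) Streptavidin-XL665 and 2 μM (2×) TK-Antibody-Cryptate in detection buffer. After 60 min, TR-FRET was read on an Envision as the 665 nm/620 nm emission ratio with 320 nm excitation.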

The test system of experiment [6] is Phospho-KIT (Y703) in M07e cells. The experiment in a line: Phospho-KIT (Y703) cellular assay in M07e cells. In kind it is cell-based. To be noted: M-07e; Phospho-KIT (Y703), M07e cells; read-out: M07e Cell IC50. In a few lines: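 Serum-starved M07e cells preincubated 50 min at 37° C with 11-point half-log compound titration, then stimulated 10 min with SCF at 90.9 ng/mL final. Fixed, permeabilized cells stained for phospho-KIT Y703 and read by flow cytometry (live-gated geometric mean); IC50 by 4-parameter fit normalized to DMSO and positive control.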

Some results are limits rather than exact numbers.

A word on the IC50: it is the point on the concentration scale where inhibition reaches its midpoint.

Sequence of CSF1R (P07333 20-972): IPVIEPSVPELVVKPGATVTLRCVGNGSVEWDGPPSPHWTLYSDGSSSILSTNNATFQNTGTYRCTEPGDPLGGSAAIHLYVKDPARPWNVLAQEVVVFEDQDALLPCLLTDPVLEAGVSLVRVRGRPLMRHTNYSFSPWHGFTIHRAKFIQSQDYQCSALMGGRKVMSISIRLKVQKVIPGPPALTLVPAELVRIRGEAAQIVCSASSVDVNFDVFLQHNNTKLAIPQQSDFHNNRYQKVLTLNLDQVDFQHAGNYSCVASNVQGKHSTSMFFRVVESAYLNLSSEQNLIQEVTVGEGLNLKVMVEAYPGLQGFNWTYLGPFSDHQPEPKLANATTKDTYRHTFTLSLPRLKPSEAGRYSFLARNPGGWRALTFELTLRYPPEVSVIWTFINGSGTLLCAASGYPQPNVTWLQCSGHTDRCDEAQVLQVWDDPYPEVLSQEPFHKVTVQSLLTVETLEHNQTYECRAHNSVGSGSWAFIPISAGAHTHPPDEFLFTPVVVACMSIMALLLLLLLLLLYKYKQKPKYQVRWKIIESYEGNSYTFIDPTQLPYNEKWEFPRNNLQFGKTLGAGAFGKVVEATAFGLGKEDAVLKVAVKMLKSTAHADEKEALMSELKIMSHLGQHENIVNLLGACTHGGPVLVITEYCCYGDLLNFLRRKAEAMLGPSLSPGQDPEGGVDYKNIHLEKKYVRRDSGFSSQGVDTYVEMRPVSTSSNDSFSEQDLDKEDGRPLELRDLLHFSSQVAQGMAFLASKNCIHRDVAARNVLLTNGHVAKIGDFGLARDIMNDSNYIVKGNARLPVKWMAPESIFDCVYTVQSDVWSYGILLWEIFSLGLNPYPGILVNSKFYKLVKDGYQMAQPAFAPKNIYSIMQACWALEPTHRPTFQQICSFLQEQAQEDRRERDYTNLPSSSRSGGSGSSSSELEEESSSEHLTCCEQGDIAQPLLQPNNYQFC
Sequence of PDGFRα (P16234 24-1089): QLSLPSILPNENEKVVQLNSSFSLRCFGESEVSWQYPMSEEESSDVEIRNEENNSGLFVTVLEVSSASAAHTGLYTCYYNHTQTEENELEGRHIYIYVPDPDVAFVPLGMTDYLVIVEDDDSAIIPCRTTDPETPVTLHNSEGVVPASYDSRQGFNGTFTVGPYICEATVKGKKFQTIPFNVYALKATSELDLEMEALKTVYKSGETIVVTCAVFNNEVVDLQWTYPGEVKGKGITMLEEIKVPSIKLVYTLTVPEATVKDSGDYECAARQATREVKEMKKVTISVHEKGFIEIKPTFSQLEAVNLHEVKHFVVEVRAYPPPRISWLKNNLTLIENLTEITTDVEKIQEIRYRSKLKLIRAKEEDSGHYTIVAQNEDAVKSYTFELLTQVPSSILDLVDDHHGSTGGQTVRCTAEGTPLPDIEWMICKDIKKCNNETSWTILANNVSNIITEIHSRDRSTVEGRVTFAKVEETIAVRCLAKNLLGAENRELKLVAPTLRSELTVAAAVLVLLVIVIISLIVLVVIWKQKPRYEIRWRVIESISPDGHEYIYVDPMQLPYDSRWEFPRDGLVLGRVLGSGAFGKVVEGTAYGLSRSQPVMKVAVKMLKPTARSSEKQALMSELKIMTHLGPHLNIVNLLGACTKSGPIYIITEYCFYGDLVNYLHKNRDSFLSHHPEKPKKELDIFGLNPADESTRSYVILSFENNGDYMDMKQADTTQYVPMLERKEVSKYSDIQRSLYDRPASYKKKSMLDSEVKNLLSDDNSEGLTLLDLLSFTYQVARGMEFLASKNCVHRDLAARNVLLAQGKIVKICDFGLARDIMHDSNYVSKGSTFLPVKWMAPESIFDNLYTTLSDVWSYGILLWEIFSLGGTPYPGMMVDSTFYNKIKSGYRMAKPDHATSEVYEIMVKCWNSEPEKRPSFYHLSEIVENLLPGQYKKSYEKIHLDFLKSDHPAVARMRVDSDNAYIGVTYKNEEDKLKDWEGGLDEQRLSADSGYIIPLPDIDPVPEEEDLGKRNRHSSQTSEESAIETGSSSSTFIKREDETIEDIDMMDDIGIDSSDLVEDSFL
Sequence of PDGFRβ (P09619 33-1106): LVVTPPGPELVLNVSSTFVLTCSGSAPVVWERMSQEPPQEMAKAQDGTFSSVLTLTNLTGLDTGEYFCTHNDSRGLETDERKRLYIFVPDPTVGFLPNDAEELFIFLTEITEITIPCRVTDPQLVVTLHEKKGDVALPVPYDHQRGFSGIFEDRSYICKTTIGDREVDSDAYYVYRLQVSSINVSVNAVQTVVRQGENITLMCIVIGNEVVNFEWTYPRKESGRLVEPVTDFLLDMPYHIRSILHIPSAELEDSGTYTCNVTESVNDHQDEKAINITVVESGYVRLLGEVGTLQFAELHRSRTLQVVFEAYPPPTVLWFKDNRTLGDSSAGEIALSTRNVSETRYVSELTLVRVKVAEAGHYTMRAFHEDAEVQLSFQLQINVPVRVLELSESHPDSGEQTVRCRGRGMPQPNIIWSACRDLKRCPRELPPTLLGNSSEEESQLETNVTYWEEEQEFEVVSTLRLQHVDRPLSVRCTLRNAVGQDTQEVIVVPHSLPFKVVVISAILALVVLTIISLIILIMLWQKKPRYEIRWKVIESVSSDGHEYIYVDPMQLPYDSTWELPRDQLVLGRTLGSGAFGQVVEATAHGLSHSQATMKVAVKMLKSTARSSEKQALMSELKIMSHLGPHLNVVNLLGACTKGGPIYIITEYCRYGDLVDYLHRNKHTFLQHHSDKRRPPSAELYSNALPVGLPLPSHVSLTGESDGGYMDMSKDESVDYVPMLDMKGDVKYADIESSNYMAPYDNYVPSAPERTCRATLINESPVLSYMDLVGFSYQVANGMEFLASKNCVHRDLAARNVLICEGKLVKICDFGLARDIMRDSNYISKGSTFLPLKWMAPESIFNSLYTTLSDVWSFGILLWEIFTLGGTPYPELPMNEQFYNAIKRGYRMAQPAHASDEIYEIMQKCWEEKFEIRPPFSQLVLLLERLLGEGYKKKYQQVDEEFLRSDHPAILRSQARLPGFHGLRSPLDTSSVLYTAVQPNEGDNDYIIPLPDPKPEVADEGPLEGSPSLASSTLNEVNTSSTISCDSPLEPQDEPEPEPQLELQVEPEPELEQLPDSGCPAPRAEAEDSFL
Sequence of c-Kit (P10721 26-976): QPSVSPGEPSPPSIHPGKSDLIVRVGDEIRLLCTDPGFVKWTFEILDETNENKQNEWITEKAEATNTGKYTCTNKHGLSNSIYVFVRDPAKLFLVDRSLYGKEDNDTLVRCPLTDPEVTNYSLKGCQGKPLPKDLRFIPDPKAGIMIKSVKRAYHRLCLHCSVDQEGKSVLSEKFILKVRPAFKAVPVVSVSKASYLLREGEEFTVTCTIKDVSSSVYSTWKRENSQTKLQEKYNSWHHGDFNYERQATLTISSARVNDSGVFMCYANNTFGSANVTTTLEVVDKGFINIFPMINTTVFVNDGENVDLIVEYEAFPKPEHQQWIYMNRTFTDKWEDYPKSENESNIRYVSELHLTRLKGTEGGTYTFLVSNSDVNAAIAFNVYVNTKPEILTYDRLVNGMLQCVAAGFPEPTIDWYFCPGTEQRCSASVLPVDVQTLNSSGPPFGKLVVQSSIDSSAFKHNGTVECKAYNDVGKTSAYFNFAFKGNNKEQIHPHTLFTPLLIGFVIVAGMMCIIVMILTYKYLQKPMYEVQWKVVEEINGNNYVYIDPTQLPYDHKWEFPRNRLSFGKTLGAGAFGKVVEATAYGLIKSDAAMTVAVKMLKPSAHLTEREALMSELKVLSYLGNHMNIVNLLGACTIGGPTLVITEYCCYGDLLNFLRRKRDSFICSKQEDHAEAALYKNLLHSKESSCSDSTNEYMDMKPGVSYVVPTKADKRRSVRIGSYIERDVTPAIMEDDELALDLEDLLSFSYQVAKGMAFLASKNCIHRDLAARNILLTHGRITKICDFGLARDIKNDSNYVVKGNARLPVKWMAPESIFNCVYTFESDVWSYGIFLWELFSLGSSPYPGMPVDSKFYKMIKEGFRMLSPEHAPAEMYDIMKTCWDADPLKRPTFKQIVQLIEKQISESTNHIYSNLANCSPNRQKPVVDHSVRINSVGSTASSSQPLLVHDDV
Sequence of FLT3 (P36888 27-993): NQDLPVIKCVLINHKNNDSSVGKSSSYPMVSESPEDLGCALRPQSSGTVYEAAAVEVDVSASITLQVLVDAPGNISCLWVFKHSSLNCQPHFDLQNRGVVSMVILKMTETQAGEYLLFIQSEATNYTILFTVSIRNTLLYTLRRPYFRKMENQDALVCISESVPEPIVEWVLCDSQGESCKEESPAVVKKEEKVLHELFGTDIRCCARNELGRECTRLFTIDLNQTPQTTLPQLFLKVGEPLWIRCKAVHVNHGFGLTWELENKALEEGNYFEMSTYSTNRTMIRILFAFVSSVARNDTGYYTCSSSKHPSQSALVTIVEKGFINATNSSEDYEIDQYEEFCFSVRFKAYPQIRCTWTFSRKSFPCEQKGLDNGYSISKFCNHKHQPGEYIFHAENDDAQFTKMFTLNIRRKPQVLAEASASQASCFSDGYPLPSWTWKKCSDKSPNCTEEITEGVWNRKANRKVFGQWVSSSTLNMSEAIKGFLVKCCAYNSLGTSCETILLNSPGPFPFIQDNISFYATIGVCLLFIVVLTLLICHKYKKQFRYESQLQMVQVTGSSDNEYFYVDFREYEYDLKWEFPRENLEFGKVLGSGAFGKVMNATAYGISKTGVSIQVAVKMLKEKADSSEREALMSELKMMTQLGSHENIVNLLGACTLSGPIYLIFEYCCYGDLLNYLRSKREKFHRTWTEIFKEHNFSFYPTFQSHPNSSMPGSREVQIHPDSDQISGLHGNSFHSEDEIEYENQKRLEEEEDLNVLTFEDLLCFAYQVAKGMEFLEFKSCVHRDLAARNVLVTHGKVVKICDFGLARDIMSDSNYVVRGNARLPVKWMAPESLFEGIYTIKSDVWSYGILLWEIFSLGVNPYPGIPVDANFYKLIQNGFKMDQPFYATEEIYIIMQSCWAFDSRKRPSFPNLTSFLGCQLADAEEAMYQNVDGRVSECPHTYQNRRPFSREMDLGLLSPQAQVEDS

`CCc1ccc(NC(=O)c2cc(NC(=O)c3cnc(C)s3)c(C)cc2F)nc1` [Example 82, N-[5-[(5-ethylpyridin-2-yl)carbamoyl]-4-fluoro-2-methylphenyl]-2-methyl-1,3-thiazole-5-carboxamide]: the IC50 was less than 0.1 µM in experiment [1]; more than 1 µM in experiment [2]; more than 1 µM in experiment [3]; more than 1 µM in experiment [4]; more than 1 µM in experiment [5]; less than 0.1 µM in experiment [6].
As for `Cc1ncc(C(=O)Nc2cc(C(=O)Nc3cnc(N4CCC[C@@H]4C)cn3)c(F)cc2C)s1` [Example 83, N-(5-{N-5-[(S)-2-methyl-1-pyrrolidinyl]-2-pyrazinylcarbamoyl}-4-fluoro-2-tolyl)-2-methyl-1,3-thiazole-5-carboxamide], the IC50 in experiment [1] was less than 0.1 µM; in experiment [2], more than 1 µM; in experiment [3] it was more than 1 µM; in experiment [4], more than 1 µM; in experiment [5] it was more than 1 µM; in experiment [6] it was less than 0.1 µM.
As to `Cc1ncc(C(=O)Nc2cc(C(=O)Nc3cnc(OCC(F)F)cn3)c(F)cc2C)s1` [Example 86, N-{5-[N-5-(2,2-difluoroethoxy)-2-pyrazinylcarbamoyl]-4-fluoro-2-tolyl}-2-methyl-1,3-thiazole-5-carboxamide], the IC50 in experiment [1] was less than 0.1 µM; in experiment [2], 0.1 to 1 µM; in experiment [3], more than 1 µM; in experiment [4], more than 1 µM; in experiment [5], more than 1 µM; in experiment [6], less than 0.1 µM.
On to `Cc1ncc(C(=O)Nc2cc(C(=O)Nc3cnc(OCC(F)(F)F)cn3)c(F)cc2C)s1` [Example 89, N-{5-[N-5-(2,2,2-trifluoroethoxy)-2-pyrazinylcarbamoyl]-4-fluoro-2-tolyl}-2-methyl-1,3-thiazole-5-carboxamide], for which the IC50 in experiment [1] is less than 0.1 µM; in experiment [2] it was more than 1 µM; in experiment [3], more than 1 µM; in experiment [4] it was more than 1 µM; in experiment [5] it was more than 1 µM; in experiment [6] it was less than 0.1 µM.
For `Cc1ncc(C(=O)Nc2cc(C(=O)Nc3cnc(N4CCC[C@@H]4C(F)(F)F)cn3)c(F)cc2C)s1` [Example 96, N-[4-fluoro-2-methyl-5-[[5-[(2R)-2-(trifluoromethyl)pyrrolidin-1-yl]pyrazin-2-yl]carbamoyl]phenyl]-2-methyl-1,3-thiazole-5-carboxamide], the IC50 is less than 0.1 µM in experiment [1]; more than 1 µM in experiment [2]; more than 1 µM in experiment [3]; more than 1 µM in experiment [4]; more than 1 µM in experiment [5]; less than 0.1 µM in experiment [6].
Turning to `Cc1cc(F)c(C(=O)N[C@H]2CCOC2)cc1NC(=O)c1cnc(NC(=O)N2CCC2)s1` [Example 102, 2-(Azetidine-1-carbonylamino)-N-[4-fluoro-2-methyl-5-[[(3S)-oxolan-3-yl]carbamoyl]phenyl]-1,3-thiazole-5-carboxamide], the IC50 in experiment [1] was less than 0.1 µM; in experiment [2], more than 1 µM; in experiment [3], more than 1 µM; in experiment [4], 0.1 to 1 µM; in experiment [5], more than 1 µM; in experiment [6], 0.1 to 1 µM.
Turning to `Cc1cc(F)c(C(=O)NCC2(F)CC2)cc1NC(=O)c1cnc(NC(=O)N2CCC2)s1` [Example 103, 2-(Azetidine-1-carbonylamino)-N-[4-fluoro-5-[(1-fluorocyclopropyl)methylcarbamoyl]-2-methylphenyl]-1,3-thiazole-5-carboxamide], the IC50 is less than 0.1 µM in experiment [1]; 0.1 to 1 µM in experiment [2]; 0.1 to 1 µM in experiment [3]; more than 1 µM in experiment [4]; more than 1 µM in experiment [5]; less than 0.1 µM in experiment [6].
For the molecule `Cc1cc(F)c(C(=O)Nc2ccc3c(n2)COCC3)cc1NC(=O)c1cnc(N)s1` [Example 114, 2-Amino-N-[5-(6,8-dihydro-5H-pyrano[3,4-b]pyridin-2-ylcarbamoyl)-4-fluoro-2-methylphenyl]-1,3-thiazole-5-carboxamide], the IC50 is less than 0.1 µM in experiment [1]; 0.1 to 1 µM in experiment [2]; 0.1 to 1 µM in experiment [3]; 0.1 to 1 µM in experiment [4]; more than 1 µM in experiment [5]; less than 0.1 µM in experiment [6].
`Cc1cc(F)c(C(=O)Nc2ccc3c(n2)CCOC3)cc1NC(=O)c1cnc(N)s1` [Example 115, 2-Amino-N-[5-(7,8-dihydro-5H-pyrano[4,3-b]pyridin-2-ylcarbamoyl)-4-fluoro-2-methylphenyl]-1,3-thiazole-5-carboxamide]: the IC50 was less than 0.1 µM in experiment [1]; more than 1 µM in experiment [2]; more than 1 µM in experiment [3]; 0.1 to 1 µM in experiment [4]; more than 1 µM in experiment [5]; less than 0.1 µM in experiment [6].
Consider `Cc1cc(F)c(C(=O)Nc2ccc(O[C@H]3CCOC3)cn2)cc1NC(=O)c1cnc(N)s1` [Example 117, 2-Amino-N-[4-fluoro-2-methyl-5-[[5-[(3S)-oxolan-3-yl]oxypyridin-2-yl]carbamoyl]phenyl]-1,3-thiazole-5-carboxamide], for which the IC50 is less than 0.1 µM in experiment [1]; more than 1 µM in experiment [2]; more than 1 µM in experiment [3]; more than 1 µM in experiment [4]; more than 1 µM in experiment [5]; less than 0.1 µM in experiment [6].
Consider `Cc1cc(F)c(C(=O)Nc2ccc(C3(C#N)CC3)cn2)cc1NC(=O)c1cnc(N)s1` [Example 118, 2-Amino-N-[5-[[5-(1-cyanocyclopropyl)pyridin-2-yl]carbamoyl]-4-fluoro-2-methylphenyl]-1,3-thiazole-5-carboxamide], for which the IC50 was less than 0.1 µM in experiment [1]; more than 1 µM in experiment [2]; 0.1 to 1 µM in experiment [3]; 0.1 to 1 µM in experiment [4]; more than 1 µM in experiment [5]; less than 0.1 µM in experiment [6].
Consider `Cc1cc(F)c(C(=O)NCC(F)(F)F)cc1NC(=O)c1cnc(N)s1` [Example 122, 2-Amino-N-[4-fluoro-2-methyl-5-(2,2,2-trifluoroethylcarbamoyl)phenyl]-1,3-thiazole-5-carboxamide], for which the IC50 is less than 0.1 µM in experiment [1]; more than 1 µM in experiment [2]; more than 1 µM in experiment [3]; more than 1 µM in experiment [4]; more than 1 µM in experiment [5]; less than 0.1 µM in experiment [6].
In the case of `CO[C@H]1C[C@@H](NC(=O)c2cc(NC(=O)c3cnc(N)s3)c(C)cc2F)C1` [Example 123, 2-Amino-N-[4-fluoro-5-[(3-methoxycyclobutyl)carbamoyl]-2-methylphenyl]-1,3-thiazole-5-carboxamide], the IC50 is less than 0.1 µM in experiment [1]; more than 1 µM in experiment [2]; more than 1 µM in experiment [3]; more than 1 µM in experiment [4]; more than 1 µM in experiment [5]; less than 0.1 µM in experiment [6].
As for `Cc1cc(F)c(C(=O)N[C@H]2C[C@@H](F)C2)cc1NC(=O)c1cnc(N)s1` [Example 124, 2-Amino-N-[4-fluoro-5-[(3-fluorocyclobutyl)carbamoyl]-2-methylphenyl]-1,3-thiazole-5-carboxamide], the IC50 in experiment [1] is less than 0.1 µM; in experiment [2], more than 1 µM; in experiment [3], more than 1 µM; in experiment [4] it was more than 1 µM; in experiment [5], more than 1 µM; in experiment [6], less than 0.1 µM.
Take `Cc1cc(F)c(C(=O)Nc2ccc(OC3CC3)cn2)cc1NC(=O)c1cnc(N)s1` [Example 129, 2-Amino-N-[5-[(5-cyclopropyloxypyridin-2-yl)carbamoyl]-4-fluoro-2-methylphenyl]-1,3-thiazole-5-carboxamide]: the IC50 in experiment [1] is less than 0.1 µM; in experiment [2], more than 1 µM; in experiment [3] it was 0.1 to 1 µM; in experiment [4], 0.1 to 1 µM; in experiment [5] it was more than 1 µM; in experiment [6] it was less than 0.1 µM.
In the case of `Cc1cc(F)c(C(=O)Nc2ccc(C3CC3)cn2)cc1NC(=O)c1cnc(N)s1` [Example 130, 2-Amino-N-[5-[(5-cyclopropylpyridin-2-yl)carbamoyl]-4-fluoro-2-methylphenyl]-1,3-thiazole-5-carboxamide], the IC50 is less than 0.1 µM in experiment [1]; 0.1 to 1 µM in experiment [2]; 0.1 to 1 µM in experiment [3]; 0.1 to 1 µM in experiment [4]; more than 1 µM in experiment [5]; less than 0.1 µM in experiment [6].
On to `COc1ccc(NC(=O)c2cc(NC(=O)c3cnc(N)s3)c(C)cc2F)nc1` [Example 131, 2-Amino-N-[4-fluoro-5-[(5-methoxypyridin-2-yl)carbamoyl]-2-methylphenyl]-1,3-thiazole-5-carboxamide], for which the IC50 was less than 0.1 µM in experiment [1]; more than 1 µM in experiment [2]; more than 1 µM in experiment [3]; more than 1 µM in experiment [4]; more than 1 µM in experiment [5]; less than 0.1 µM in experiment [6].
